Experimental data from patent US20040037806A1, “Aldosterone blocker therapy to prevent or treat inflammation-related disorders” (Pharmacia Corporation, priority 2002, published 2004).
“Also recorded” adds a separate entry of the source.

Legend:
[1] = system: Atrial natriuretic factor (ANP); assay: Assay C: ANP mRNA in left ventricle, TaqMan; format: in vivo, rat; conditions: aldosterone+salt alone or with eplerenone 100 mg/kg/day; 7, 14, 30 days
Protocol: (§1) The procedure of Assay B was expanded upon in a further study. […] Myocardial tissue from animals in each treatment group was examined after 7, 14, or 30 days of treatment.
(§2) Potassium chloride supplementation was added to the saline solution in order to prevent the potential hypokalemia associated with aldosterone excess.
(§3) Treatment At the time of the surgery, an Alzet 2002 osmotic minipump (Alza Corp., Palo Alto, Calif.) containing either vehicle (9% ethanol/87% propylene glycol/4% dH2O) or 1.0 mg/mL d-aldosterone (Sigma Chemical, St. Louis, Mo.) was inserted subcutaneously at the nape of the neck. Aldosterone was administered at a dose of 0.75 µg/hour. […]
(§4) The fluorogenic 5′-nuclease assay (TaqMan PCR) using Applied Biosystems' 7700 Sequence Detection System (Applied Biosystems, Foster City, Calif.) allowed for real time detection/quantitation of a specific gene by monitoring the increase in fluorescence of a gene-specific, dye-labeled oligonucleotide probe. […] When the probe was annealed to the target gene, fluorescence of 6FAM was prevented by the close proximity of TAMRA. The exonuclease activity of Taq polymerase released the dyes from the oligonucleotide probe by displacing the probe from the target sequence resulting in fluorescence excitation in direct proportion to the amount of target message present. […]

[2] = system: Intercellular Adhesion Molecule-1 (ICAM-1); assay: Assay C: ICAM-1 mRNA, TaqMan; format: in vivo, rat; conditions: aldosterone+salt alone or with eplerenone 100 mg/kg/day; 7, 14, 30 days
Protocol: as §1, §2, §3, §4

Structure (SMILES)	Atrial natiuretic peptide (ANP) mRNA levels [1]	ICAM-1 mRNA expression in myocardium [2]
C[C@]12CCC(=O)C=C1CC[C@@H]1[C@@H]2[C@@H](O)C[C@]2(C=O)[C@@H](C(=O)CO)CC[C@@H]12 [aldosterone]	Significant elevations	upregulated at day 14 and 30
COC(=O)[C@@H]1CC2=CC(=O)CC[C@]2(C)[C@@]23O[C@@H]2C[C@@]2(C)[C@@H](CC[C@@]24CCC(=O)O4)[C@H]13 [eplerenone]	significantly reduced by eplerenone after 30 days of treatment but not after 14 days	significantly reduced; also recorded: inhibition of early time-course expression of myocardial ICAM-1 and VCAM-1
